Source: US20140165223A1, “TNF SUPERFAMILY TRIMERIZATION INHIBITORS” (B.S.R.C. "Alexander Fleming", priority 2011, published 2014)

Assays:
GST-RANKL = target: T1, GST-RANKL (Mus musculus, UniProt O35235); experiment: Ex vivo RANKL-induced osteoclast formation (BM cells, M-CSF + GST-RANKL, TRAP staining); format: cell-based; conditions: BM cells, 25 ng/ml M-CSF, 80 ng/ml GST-RANKL
T1 construct: a cDNA encoding the core ectodomain of murine RANKL residues 158-316, with or without the G278R substitution; made in house; host or cells: Escherichia coli BL21
T1 sequence (O35235 158-316): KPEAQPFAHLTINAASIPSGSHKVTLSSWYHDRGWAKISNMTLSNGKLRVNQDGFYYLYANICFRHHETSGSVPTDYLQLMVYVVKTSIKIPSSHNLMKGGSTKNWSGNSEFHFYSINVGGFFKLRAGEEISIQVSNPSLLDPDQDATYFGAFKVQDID
Method: Instead, WT GST-RANKL (ratio 1:0) induced formation of TRAP+ giant osteoclasts (FIGS. 5A-5C). […] Incubation of WT GST-RANKL with GST at similar concentrations (12.5-100 ng/ml), didn't affect the formation of osteoclasts.
A novel small molecule inhibitor of TNF trimerization, named SPD304, has been recently reported^[35] to interact with glycine 122 (G122) that corresponds to G278 in RANKL.
BM cells were collected after flushing out of femurs and tibiae, subjected to gradient purification using FICOLL-PAQUE™ (GE Healthcare), plated in 24-well plates at a density of 5×10^5 cells per well and cultured in αMEM medium (GIBCO) containing 10% fetal bovine serum supplemented with 40 ng/ml RANKL (R&D Systems) and 25 ng/ml M-CSF (R&D Systems) for 5 days. Similarly, splenocytes were collected, plated in 24-well plates at a density of 10^6 cells per well and cultured in the presence of recombinant RANKL and M-CSF for 6 days. GST-RANKL^G278R was pre-incubated with WT GST-RANKL at room temperature for 20 min, prior to the stimulation of the BM cell cultures, in order to enable exchange of the RANKL variants and heterotrimer formation. Small molecule SPD304 (Sigma-Aldrich) was pre-incubated with 80 ng/ml GST-RANKL at various concentrations from 0.25 to 2 μM in αMEM medium for 1 hour at room temperature and then added to culture. Osteoclasts were stained for TRAP activity.

soluble mouse RANKL = target: T2, soluble mouse RANKL (Mus musculus, UniProt O35235); experiment: Soluble mouse RANKL preincubated with SPD304: native gel and DSS cross-linking; format: biochemical
T2 construct: a cDNA encoding the core ectodomain of murine RANKL residues 158-316, with or without the G278R substitution; GST (N, cleaved yes); made in house; host or cells: Escherichia coli BL21
T2 sequence (O35235 158-316): T1 sequence (O35235 158-316)
Method: FIG. 13. Effect of SDP304 on RANKL structure. (Panel A) RANKL dimer with SPD304 located on optimum binding position. G278 is shown with space-filled atoms and SPD304 with doted surface. Cyan and green ribbons represent the two RANKL monomers. Diagram created using PYMOL v1.3. (Panel B) Recombinant WT soluble mouse RANKL (60 ng) was preincubated for 1 hour at 37° C. either with SPD304 at various concentrations from 6-200 μM or without SPD304 (−), resolved on native gel and detected by Western blotting using a polyclonal antibody against RANKL. (Panel C) Recombinant soluble mouse RANKL was preincubated with SPD304 at increasing concentrations from 6-100 μM, was cross-linked with DSS, run on 12% SDS-PAGE and detected by Western blot using an anti-RANKL polyclonal antibody. A representative figure of three independent experiments is shown for Western blots.
Experimental evidence on the TNF analogue and in silico binding studies on mouse RANKL confirm that the optimal binding position of SPD304, causing trimer inhibition, is located very close (<4 Å) to the G278 mutation position in the structure (FIG. 13, Panel A). To experimentally confirm the interference of the SPD304 with the RANKL structure, soluble mouse RANKL was preincubated with increasing concentrations of SPD304 (6-200 μM) and analyzed in native gels showing the natural conformation of RANKL protein (FIG. 13, Panel B). […]

human RANKL = target: T3, human RANKL (Homo sapiens, UniProt O14788); experiment: RANKL-mediated osteoclastogenesis assay with human RANKL; format: cell-based
T3 construct: purchased Peprotech
T3 sequence (O14788 143-317 limits assumed): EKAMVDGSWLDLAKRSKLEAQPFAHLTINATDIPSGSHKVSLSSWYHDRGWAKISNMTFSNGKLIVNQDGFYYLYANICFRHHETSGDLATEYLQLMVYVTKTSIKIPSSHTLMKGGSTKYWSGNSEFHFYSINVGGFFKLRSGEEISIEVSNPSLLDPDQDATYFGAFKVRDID
From the text: However, SPD304 contains a potentially toxic 3-substituted indole moiety that produces reactive intermediates that possibly cause toxicities by covalently binding to nucleophilic residues of protein and/or DNA. […] These small molecules have been also tested as regards their effect on cell toxicity (FIG. 14C).
BM cells were collected after flushing out of femurs and tibiae, subjected to gradient purification using FICOLL-PAQUE™ (GE Healthcare), plated in 96-well plates at a density of 6×10^4 cells per well and cultured in αMEM medium (GIBCO) containing 10% fetal bovine serum supplemented with 50 ng/ml human RANKL (Peprotech) and 25 ng/ml M-CSF (R&D Systems) for 5 days. […] Osteoclasts were stained for TRAP activity (Sigma).

[1] = MTT survival assay in osteoclast precursors; format: cell-based; conditions: M-CSF, 1-20 μM, 2 days, read-out: IC50 in MTT survival assay (cell toxicity)
Method: (§1) However, SPD304 contains a potentially toxic 3-substituted indole moiety that produces reactive intermediates that possibly cause toxicities by covalently binding to nucleophilic residues of protein and/or DNA. […] Therefore, we investigated the potential of testing SPD304 derivatives designed to be less toxic with higher specificity for human RANKL. […] These small molecules have been also tested as regards their effect on cell toxicity (FIG. 14C).
(§2) Bone marrow (BM) cells were plated in 96-well plates at a density of 10^5 cells per well after gradient purification using FICOLL-PAQUE™ (GE Healthcare). BM cells were cultured in αMEM medium (GIBCO) containing 10% fetal bovine serum supplemented with 25 ng/ml M-CSF (R&D Systems) in the presence of the tested compounds at concentrations from 1-20 μM for 2 days (0.1% DMSO). Serum free a-MEM medium containing 0.5 mg/ml MTT [3-(4,5-Dimethylthiazol-2-yl)-2,5-diphenyltetrazolium bromide] was added for 2 hours in a 37° C. CO2 incubator. After removal of the MTT solution, DMSO was added to extract the dye from the cells and cell viability was accessed at 550 nm.

osteoclast precursors = experiment: MTT survival assay in osteoclast precursors; format: cell-based
Method: as §1, §2

TNF = TNF (Homo sapiens, UniProt P01375); conditions: cited from earlier work
Chain of TNF (P01375 77-233 limits assumed): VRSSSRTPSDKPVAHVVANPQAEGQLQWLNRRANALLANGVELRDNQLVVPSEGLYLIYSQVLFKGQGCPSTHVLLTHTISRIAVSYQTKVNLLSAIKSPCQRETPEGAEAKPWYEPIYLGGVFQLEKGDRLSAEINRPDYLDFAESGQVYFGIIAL

BAFFR-Fc = experiment: BAFF/BAFF receptor ELISA; format: binding; conditions: serial dilutions of human BAFFR-Fc
From the text: (§3) Glycine at codon 278 of mouse RANKL is highly conserved among various members of the TNF superfamily. In order to investigate whether this glycine to arginine substitution is also critical for trimerization in other TNF superfamily members, we reproduced this mutation in human BAFF (BAFF^G249R), a cytokine that activates B lymphocytes. Thus, we produced recombinant GST-BAFF in E coli and subsequently the soluble BAFF was released from GST by proteolytic cleavage. […] To examine whether soluble BAFF^G249R binds to BAFF receptor (BAFFR), serial dilutions of human BAFFR-Fc were incubated with immobilized soluble BAFF or BAFF^G249R (FIG. 21B). […] Thus, substitution of this conserved glycine abrogates trimerization not only in RANKL but also in other TNF superfamily members such as TNF, BAFF and possibly in many more.
Nunc plates were coated with 3 μg/ml recombinant soluble human BAFF or BAFF^G249R and incubated with increasing amount of recombinant human BAFFR-Fc (R&D Systems). BAFFR binding was detected with a horseradish peroxidase (HRP) conjugated goat anti-human IgG (Fc) (SouthernBiotech, Birmingham, USA) using o-phenylenediamine (OPD) substrate (Thermo Scientific Pierce) that was measured at 490 nm.

BAFF = target: T4, BAFF (Homo sapiens, UniProt Q9Y275); experiment: BAFF cross-linking and Western (trimer formation); format: biochemical; conditions: DSS cross-linking
T4 construct: a cDNA encoding the core ectodomain of human BAFF residues 134-285 (17.5 kD), with or without the G249R substitution; GST (N, cleaved yes); made in house; host or cells: E. coli BL21
T4 sequence (Q9Y275 134-285): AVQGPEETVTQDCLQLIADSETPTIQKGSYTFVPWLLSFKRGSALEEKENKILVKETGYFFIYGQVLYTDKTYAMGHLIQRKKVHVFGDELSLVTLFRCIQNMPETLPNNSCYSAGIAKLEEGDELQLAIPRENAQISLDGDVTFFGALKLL
From the text: as §3
The chemical cross-linking reagent disuccinimidyl suberate (DSS, Sigma) was used to examine the trimeric property of BAFF as previously described (Douni et al., 2012). Various amounts of BAFF proteins in PBS buffer (pH 7.5) were mixed with 1 mM DSS (the molar ratio of DSS is 10:1). The cross-linking reactions were carried out for 1 hour at room temperature and terminated with 50 mM Tris (pH 7.5) for 30 minutes. Proteins from reaction mixtures were separated on 12% SDS-PAGE and proceeded in Western blot using a polyclonal anti-BAFF antibody (PeproTech).

[2] = target: T5, binding of human RANKL to its receptor RANK (Homo sapiens, UniProt O14788); experiment: RANKL/RANK ELISA; conditions: peptides 3-100 μM, dose dependent
T5 construct: a cDNA encoding the core ectodomain of human RANKL residues 143-317 (20 kD), was cloned into pGEX-6P-1; GST (N, cleaved yes); host or cells: Escherichia coli BL21 (RANKL)
T5 sequence (O14788 143-317): T3 sequence (O14788 143-317 limits assumed)
Method: Nunc plates were coated with 100 μl of 250 ng/ml recombinant soluble human RANK-Fc (R&D Systems) overnight. Recombinant soluble human RANKL at 200 ng/ml was pre-incubated with increasing amounts of peptides (3-100 μM) for 1 hour at 37° C. and was added in the RANK-coated wells. RANKL binding was detected with a polyclonal goat anti-RANKL antibody (R&D Systems), followed by a horseradish peroxidase (HRP) conjugated horse anti-goat IgG (Vector) using o-phenylenediamine (OPD) substrate (Thermo Scientific Pierce) that was measured at 490 nm.

Compound: Cc1cc2occ(CN(C)CCN(C)Cc3cn(-c4cccc(C(F)(F)F)c4)c4ccccc34)c(=O)c2cc1C [SPD304, 6,7-Dimethyl-3-[[methyl[2-[methyl[[1-[3-(trifluoromethyl)phenyl]-1H-indol-3-yl]methyl]amino]ethyl]amino]methyl]-(4H-1-Benzopyran-4-one)]
- formation of TRAP+ multinucleated osteoclasts (GST-RANKL; SPD304 at 1 μM): attenuated both the number and the size of TRAP+ multinucleated cells
- formation of multinuclear TRAP+ osteoclasts (GST-RANKL; SPD304 at 2 μM): completely inhibited
- RANKL forms after chemical cross-linking (soluble mouse RANKL; SPD304 6-100 μM, DSS): dramatic increase of RANKL dimers and monomers
- RANKL conformation in native gel (soluble mouse RANKL; SPD304 6-200 μM, 1 hour at 37° C.): a second band of lower molecular weight was also evident
- inhibition of human RANKL function in osteoclastogenesis (human RANKL; 2 μM): effective in inhibiting human RANKL function
- IC50 at 2 days [1]: 3.4 µM
- toxic concentrations in MTT survival assay (osteoclast precursors): above 5 μM
- inhibition of TNF trimerization and function (TNF): effectively inhibits TNF trimerization and function

Compound: BAFF^G249R: soluble human BAFF residues 134-285 with the G249R substitution
- binding to BAFF receptor (BAFFR-Fc): cannot bind to its receptor
- BAFF trimer assembly (BAFF): failure of spontaneous trimer assembly

Compound: HFYSINVGRFFK (RANKL fragment) [peptide 2]
- inhibition of RANKL function in RANKL-dependent osteoclastogenesis assays (human RANKL; peptides at 50 μM (FIG. 16A)): inhibited the function of RANKL
- inhibition of binding of human RANKL to RANK [2]: inhibit the binding of human RANKL to its receptor RANK
